Test results published in patent US8653026B2, “Treatment of type 2 diabetes with FTY720” (Diapin Therapeutics LLC, priority 2011, dated 2014).

Columns and labels:
db/db mice [1] = assay: Weekly fasting blood glucose in db/db mice given oral FTY720; type: in vivo, mouse
Experimental: FIG. 2A. Time course of the fasting glucose levels of db/db mice with or without oral FTY720. Open circle (∘), FTY720-untreated group; solid circle (●), pre-diabetic db/db mice (Fasting glucose<126 mg/dL) at six-week-old treated with 10 mg/kg FTY720; and triangle (▴), diabetic db/db mice (Fasting glucose≅430 mg/dL) at nine-week-old treated with 10 mg/kg FTY720 (n=4). I, Fasting glucose of mice at the age of 6 weeks to 12 weeks at the daily dosage of 10 mg/kg FTY720 (n=20 for the control and FTY720 treated pre-diabetic mice, respectively); II, fasting glucose levels of mice at the age of 12 weeks to 20 weeks at the daily dosage of 10 mg/kg FTY720 (n=6 for the control and FTY720 treated mice, respectively); III, fasting glucose levels of mice at the age of 20 weeks to 29 weeks at the […] dosage of 10 mg/kg FTY720 (n=2 for control and FTY720 treated mice, respectively); IV, fasting glucose levels from the mouse without FTY720 treatment after age of 29 weeks (n=2 for control and FTY720 treated mice, respectively).
Animals and Procedures—Five-week-old female db/db mice (BKS.Cg-m+/−Leprdb) were purchased from Jackson Laboratories (Bar Harbor, Me.). Mice were housed under controlled light (12 h light/12 h dark) and temperature conditions, and had free access to food (normal rodent chow) and water. All procedures were conducted in accordance with the guidelines on Animal Care and were approved by the Institutional Animal Care and Use Committee (IACUC) of Mount Sinai School of Medicine. After 1 week, the fasting glucose levels of the 6-week-old mice were measured. Mice with normal glucose levels (<126 mg/dl) were randomly divided into control and FTY720 treatment groups. Mice in the FTY720-treated group were fed 10 mg/kg of FTY720 daily by feeding tube and their food intake and body weight were measured twice a week. Fasting glucose levels were measured at the end of each week. At 12 weeks of age (when the mice had been treated for 6 weeks), all mice were subjected to metabolic analysis. After metabolic analysis, the pancreases were removed from the mice at 13 and 16 weeks of age for immunohistochemical analysis, quantitation of islet area, or islet isolation.
To rigorously determine the effects of FTY720 in vivo, pre-diabetic (age of six weeks, fasting glucose<126 mg/dL) and diabetic (age of 8-9 weeks, fasting glucose=430 mg/dL) female db/db mice were fed daily with FTY720 (+FTY720) for 29 weeks, and monitored by weekly fasting blood glucose measurements.

db/db mice [2] = assay: Fasting serum insulin levels (ELISA) in db/db mice; type: in vivo, mouse; conditions: FTY720-treated vs untreated, after overnight fasting
From the text: FIG. 4. Fasting serum insulin levels of the db/db mice with (+FTY720) or without FTY720 (−FTY720) treatment (*p<0.01).
After overnight fasting, blood samples ([…]) were collected in a heparinized microhematocrit tube for the determination of insulin concentration using a Ultra Sensitive Mouse Insulin ELISA Kit (Crystal Chem Inc., Downers Grove, Ill.) (30).

[3] = system: isolated pancreatic islets; assay: Glucose-stimulated insulin secretion by isolated normal islets ex vivo; type: cell-based, mouse; conditions: islets from 8 weeks old normal C57/BL6 mice, 0.2 μM FTY720, 24 hours
Experimental: Islets were isolated from 8 weeks old normal C57/BL6 mice and treated with or without 0.2 μM FTY720 in the culture medium without FBA for 24 hours. Then the islets were stimulated with glucose and secreted insulin was measured using an Ultra Sensitive Mouse Insulin ELISA Kit (Crystal Chem Inc., Downers Grove, Ill.) and total proteins of islets were measured.

## CCCCCCCCc1ccc(CCC(N)(CO)CO)cc1 [FTY720, 2-amino-2-[2-(4-octylphenyl)ethyl]propane-1,3-diol]
db/db mice [1]; all FTY720-treated db/db mice, after 6 weeks treatment
  distribution of fasting glucose levels: normalized
db/db mice [1]; db/db mice, administration ceased completely after 29-weeks treatment
  fasting glucose levels after FTY720 administration was ceased: well controlled
db/db mice [1]; diabetic db/db mice (glucose ≧350 mg/dL), after six weeks of oral FTY720 10 mg/kg
  fasting glucose levels: became normal
db/db mice [1]; i.p. injected into or orally administrated to db/db mice
  fasting glucose levels (screen): capable of normalizing
db/db mice [1]; pre-diabetic db/db mice (six weeks old, fasting glucose <126 mg/dL), 10 mg/kg FTY720 oral daily, untreated about 500 mg/dL by age 12 weeks
  fasting glucose levels: ~126 mg/dL
db/db mice [2]
  fasting serum insulin levels: significantly elevated
[3]
  glucose-stimulated insulin secretion: does not affect
